Results on five compounds are retold here after US20220317115A1, “3D ORGANOIDS FOR PERSONALIZED ORAL CANCER THERAPY” (THE TRUSTEES OF COLUMBIA UNIVERSITY IN THE CITY OF NEW YOURK, priority 2019, published 2022).

The subject of series [1] is 4NQO-induced tumor organoids (Aldh2*2 vs Aldh2*1). Nature of the series: CellTiter-Glo 3D cell viability assay of 4NQO-induced tumor organoids with Aldh2 SNP genotypes. Format: cell-based, mice. As to conditions: for Response of Aldh2*2 (Aldh2 mutant) tumor organoids to chemotherapy agent compared with Aldh2*1 (wild-type) tumor organoids: treatment for 3 days, cisplatin 80 μM, 5FU data not shown. On the procedure:
4NQO-induced tumor organoids with indicated Aldh2 SNP genotypes were analyzed by H&E staining for cellular abnormality in FIG. 5A and by […] CellTiter-Glo® 3D cell viability assays, following treatment for 3 days with cisplatin (80 μM) along with or without 10 μM Alda-1, an Aldh2 activator in FIG. 5B. *, p<0.01 vs. Aldh21; ns, not significant (n=6).
Aldh2*2 is a common single nucleotide polymorphism (SNP) strongly associated with OSCC. To evaluate the role of Aldh2*2 in 4NQO-induced neoplastic cells in 3D organoids, Aldh2*2 mice expressing mutant Aldh2 protein (Aldh2^E487K) were compared with wild-type Aldh2*1 (control) mice. 3D organoids were analyzed from tumors detected in mice sacrificed at 26 weeks from the start of 4NQO treatment. […] Thus, individuals with Aldh2*2 SNP may respond to chemotherapy better despite its strong association with a risk of OSCC tumor development. It was hypothesized that pharmacological Aldh2 inhibition by Disulfiram (Antabuse, used a treatment of chronic alcoholism) augments the chemotherapy effects in OSCC in individuals with Aldh2*1. Thus, patient-derived 3D organoids may serve as a platform for new translational applications in personalized medicine for therapy of OSCC and potentially other squamous cell carcinomas.
Oral 3D organoids (FIG. 6): 3D organoids will be generated according to the published protocols (Kasagi et al. 2018; Natsuizaka et al. 2017; Whelan et al. 2017). In 24-well plates, 2,000 cells are seeded in Matrigel (50 μl/well). Organoids grow within 7-10 days to form 50-100 μm spherical structures (100% success, n=34 for human normal biopsies) (Kasagi et al. 2018). For quality control purposes, an OSCC cell line will be used (Kijima et al. 2019). Time-lapse analysis of growing organoids will be done under light microscopy to determine their average size and morphology. organoid formation rate (OFR; the percentage of the number of organoids formed at day 10 per total number of cells seeded at day 0) will be determined. Organoids will then be processed for DNA, RNA and flow cytometry, and histology. […]
On the technique in general: In ATP-based viability assays light output follows the ATP content of the culture.

The subject of series [2] is esophageal 3D organoids. Nature of the series: Modeling reactive epithelium in esophageal organoids with IL-13. The class given is cell-based, human. As to conditions: IL-13 stimulation (10 ng/ml in protocol), compared to untreated organoids. An excerpt:
Reactive changes in esophageal epithelium are induced by multiple soluble factors secreted by immune cells and fibroblasts. The function of these factors in disease development can be modeled and evaluated in esophageal organoids. Here we provide an example of such an experiment by treating normal esophageal organoids with interleukin 13 (IL-13) to model reactive changes induced in esophageal epithelium by eosinophils; however, any bioactive compounds (cytokines, antibodies, small molecule inhibitors) can be utilized to model pathologic conditions and/or treatment strategies. Representative images of esophageal organoids treated with IL-13, as well as gene expression profiles of select EoE-relevant genes (Blanchard et al., 2007; Kasagi et al., 2019), can be found in FIGS. 35A-35B.
Additional Materials (see also Basic Protocol 1) • Interleukin 13 (IL-13; R&D Systems, cat. no. 213-ILB-005) • Reconstituted IL-13 (reconstitute lyophilized IL-13 to 100 μg/ml in PBS, aliquot, and store at −80° C.; avoid repeated freeze-thaw cycles) • Growing culture of esophageal organoids (see Basic Protocol 1) • 1. Remove spent medium. • 2. Dispense 500 μl KSFMC containing 10 ng/ml IL-13. • 3. Observe organoid growth under a phase-contrast microscope. • 4. Harvest organoids for histology and RNA isolation, as described in Basic Protocol 3. • 5. Evaluate changes in morphology and gene expression.

Series [3] concerns EAC PDO. Nature of the series: IC50 from drug-treated EAC PDO, mean organoid size by Celigo Imaging Cytometer. The class given is cell-based, human. As to conditions: 72 h-exposure, R squares 0.5874 (Cisplatin) and 0.8652 (Paclitaxel), read-out: IC50 (organoid size normalized by vehicle-treated control as 100%). The procedure: EAC PDO size were evaluated by Celigo Imaging Cytometer measuring the mean organoid size following 72 h-exposure to Cisplatin and Paclitaxel at indicated final concentrations. Organoid size was normalized by vehicle-treated control as 100%.
To evaluate organoid growth, 3D organoid structures were monitored during culture, and their size is documented by a conventional phase-contrast inverted microscope or highthroughput cell imaging instruments (e.g., Celigo Image Cytometer, Nexcelom Bioscience) with the capacity of automated multi-well rapid imaging and quantitative analysis of organoid size, number and structure.
• 1. Grow organoids in 24-well or 96-well plates (Basic Protocols 1 and 2). Use at least three (3) wells per condition as biological replicates. • 2. Acquire phase-contrast images (FIGS. 37A-37B) manually via a conventional microscopy with a camera. Use ImageJ software to measure the diameter of at least 5 organoids per well. Alternatively, Celigo imaging cytometer can not only acquire phase-contrast images but calculate mean organoid area for all organoids imaged. Such assays can be performed in conjunction with drug treatment (FIG. 38) (Basic Protocol 6). • 3. Repeat step 2 every other day. • 4. Generate growth curves by plotting organoid diameter or area at each time point.
• 1. Remove the spent culture medium by aspiration. • 2. […]

“Also recorded” adds a separate entry of the source. Like-named read-outs stand apart in the source and are kept apart here.

As a reminder, the IC50 is the concentration that gives 50% inhibition.

Consider `O=c1[nH]cc(F)c(=O)[nH]1` [5FU, 5-Fluorouracil], for which, in series [1], the “Response of Aldh2*2 (Aldh2 mutant) tumor organoids to chemotherapy agent compared with Aldh2*1 (wild-type) tumor organoids” value is “better than Aldh2*1”.
Turning to “IL-13: eosinophilic esophagitis (EoE)-relevant cytokine, recombinant (R&D Systems)”, in series [2], the “Reactive epithelial change (basal cell hyperplasia) in organoids” value is listed as “induces BCH-like changes; also recorded: Basal cell hyperplasia is evident”.
Turning to `O=C(NCc1ccc2c(c1)OCO2)c1c(Cl)cccc1Cl` [Alda1], the “Effect on cisplatin-mediated cytotoxicity in Aldh2*2 tumor 3D organoids” value in series [1] (10 μM Alda-1 with cisplatin 80 μM, 3 days) is reported as “cisplatin-mediated cytotoxicity was reversed”.
For the compound `N.N.[Cl][Pt][Cl]` [Cisplatin], in series [3], the IC50 came to 7.1 µM. Moreover, the “Response of Aldh2*2 (Aldh2 mutant) tumor organoids to chemotherapy agent compared with Aldh2*1 (wild-type) tumor organoids” value in series [1] is on record as “better than Aldh2*1”.
Regarding `CC(=O)O[C@H]1C(=O)[C@@]2(C)[C@H]([C@H](OC(=O)c3ccccc3)[C@]3(O)C[C@H](OC(=O)[C@H](O)[C@@H](NC(=O)c4ccccc4)c4ccccc4)C(C)=C1C3(C)C)[C@]1(OC(C)=O)CO[C@@H]1C[C@@H]2O` [Paclitaxel], in series [3] (Homo sapiens), the IC50 came out at 2.3 µM.
